PubChem BioAssay (NCI)
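Where inhibition never reached the appropriate level, the endpoint shown equals the highest concentration tested. Otherwise, values were interpolated linearly from a five-concentration, 48-hour dose response in 96-well plates. At the GI50, growth is halved. At the TGI there is no net growth.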

Key:
Test in all cases: NCI anticancer screen, dose series, 48 h
[1] = system: DU-145 prostate
[2] = system: HCT-116 colon
[3] = system: ACHN renal
[4] = system: HOP-92 NSCLC
[5] = system: TK-10 renal
[6] = system: UO-31 renal
[7] = system: MCF7 breast
[8] = system: OVCAR-4 ovarian
[9] = system: KM12 colon
[10] = system: SK-MEL-28 melanoma

Structure (SMILES)	TGI [1]	TGI [2]	TGI [3]	TGI [4]	TGI [5]	TGI [6]	TGI [7]	TGI [8]	TGI [9]	TGI [10]	GI50 [1]	GI50 [2]	GI50 [3]	GI50 [4]	GI50 [5]	GI50 [6]	GI50 [7]	GI50 [8]	GI50 [9]	GI50 [10]
CC(=O)O[C@H]1CC[C@@]2(C)C(=CC[C@@H]3[C@@H]2CC[C@]2(C)c4c(n[nH]c4C)C[C@@H]32)C1	27.2 µM	44.5 µM	43.5 µM	39.8 µM	34.2 µM	33.8 µM	24.2 µM	33.3 µM	37.4 µM	45.2 µM										
COc1ccc(-c2oc3cc(OC)c(OC)c(O)c3c(=O)c2OC)cc1	> 100 µM	> 100 µM	> 100 µM	33.8 µM	> 100 µM	> 100 µM	> 100 µM	> 100 µM	> 100 µM	> 100 µM										
Cc1cccc2oc3c(c(=O)c12)CC(O)C(C)(C)O3 (stereo not given)	> 100 µM	> 100 µM	> 100 µM	> 100 µM	> 100 µM	> 100 µM	> 100 µM	> 100 µM	> 100 µM	> 100 µM										
c1ccc2cc3c(NC4=NCCO4)cccc3cc2c1	> 100 µM	> 100 µM	> 100 µM	74 µM	> 100 µM	> 100 µM	> 100 µM	> 100 µM	> 100 µM	> 100 µM										
Cc1ccc(O)c(C2=CC3=NNC(=O)C3C(c3cccc(Cl)c3)C2)c1 (stereo not given)	> 100 µM	> 100 µM	> 100 µM	96.1 µM	57.5 µM	> 100 µM	47.1 µM	44.3 µM	55.1 µM	> 100 µM										
Cc1ccc(-c2c(-c3ccccc3)[nH]c(C)c2C(=O)ONC(=O)c2ccccc2)cc1	3.82 µM	7.27 µM	4.15 µM	4.09 µM	18.2 µM	3.86 µM	17.3 µM	9.48 µM	26.4 µM	27.1 µM										
O=C(c1cccs1)c1nccc2c1cnc1ccccc12	> 100 µM	> 100 µM	> 100 µM	> 100 µM	> 100 µM	> 100 µM	72.5 µM	> 100 µM	> 100 µM	> 100 µM										
O=C(Cn1cc(Br)c(=O)[nH]c1=O)c1ccc(-c2ccccc2)cc1	> 30.7 µM	> 100 µM	> 100 µM	82.5 µM	> 100 µM	> 100 µM	> 100 µM	> 100 µM	> 26.3 µM	> 19.9 µM										
O=c1[nH]c(SCc2cccc([N+](=O)[O-])c2)nc2nc[nH]c12	> 100 µM	> 100 µM	> 100 µM	> 100 µM	> 100 µM	> 100 µM	> 100 µM	> 100 µM	> 100 µM	> 100 µM										
CCOC(=O)c1cn2c(n1)sc1cc(OC)ccc12	24.6 µM	> 43.9 µM	> 100 µM	> 100 µM	> 100 µM	> 100 µM	> 100 µM	> 100 µM	> 100 µM	> 100 µM										
O=[N+]([O-])C(/C(Cl)=C(\Cl)Br)=C(/Cl)SCc1ccccc1	25.7 µM	7.11 µM	8.64 µM	5.34 µM	10.8 µM	5.73 µM	11.2 µM	11.4 µM	30 µM	5.98 µM										
Cc1ccc2nc3n[nH]c(N)c3nc2c1	> 100 µM	> 100 µM	> 100 µM	> 100 µM	> 100 µM	> 100 µM	> 100 µM	> 100 µM	> 100 µM	> 100 µM										
CC1(C)CO[P@@](=S)(c2ccccn2)O[C@@H]1c1ccccc1	> 100 µM	> 100 µM	> 100 µM	> 100 µM	> 100 µM	> 100 µM	> 100 µM	> 100 µM	> 100 µM	> 100 µM										
COc1cc(/C=C2\C[C@H]3[C@@H]4CCC5=CC(=O)CC[C@]5(C)[C@H]4CC[C@]3(C)C2=O)cc(OC)c1OC	> 100 µM	> 40.8 µM	> 100 µM	> 100 µM	> 100 µM	> 100 µM	> 100 µM	> 59.7 µM	> 37.2 µM	> 100 µM										
Cc1cn(-c2cccc(NC(=O)c3ccc(C)c(Nc4nccc(-c5cccnc5)n4)c3)c2)cn1	17.9 µM	3.05 µM	3.17 µM	2.51 µM	3.6 µM	3.05 µM	4.74 µM	3.11 µM	4.98 µM	3.18 µM	3.73 µM	1.64 µM	1.69 µM	1.18 µM	2.04 µM	1.5 µM	1.94 µM	1.71 µM	2.1 µM	1.8 µM
O=C(/C=C1\Sc2ccccc2N=C1CC(=O)c1ccccc1)c1ccccc1	89.1 µM	19.2 µM	72.5 µM	21.6 µM	45.2 µM	31.5 µM	> 100 µM	40.3 µM	24.5 µM	57.2 µM										
CCCCCCCCC/C=C1/CC(CO)(COC(=O)CC(C(C)C)C(C)C)OC1=O (stereo not given)	25.3 µM	26.6 µM	18.6 µM	15.8 µM	15.1 µM	18.1 µM	24.4 µM	28.4 µM	23.1 µM	31.8 µM										
COc1ccc2c(O)c(S(=O)(=O)c3ccc(C)cc3)c(=O)oc2c1OC	> 100 µM	> 100 µM	> 100 µM	> 100 µM	> 100 µM	> 100 µM	> 100 µM	> 100 µM	> 100 µM	> 100 µM										
